Measured values as given in article PMC11721856, “Searching for novel MDM2/MDMX dual inhibitors through a drug repurposing approach” (Journal of Enzyme Inhibition and Medicinal Chemistry, 2023).

Tests used:
[1] = molecular target: T1, MDM2 (Homo sapiens, UniProt Q00987); assay: competitive fluorescence polarisation, % inhibition at […]; settings: read-out: Protein binding inhibition at 1 μM(%) ^a / MDM2
T1 construct: residues 1–110

[2] = molecular target: T2, MDMX (Homo sapiens, UniProt O15151); assay: as above; settings: read-out: Protein binding inhibition at 1 μM(%) ^a / MDMX
T2 construct: gene MDM4; residues 1–110
T2 sequence (O15151 1-110): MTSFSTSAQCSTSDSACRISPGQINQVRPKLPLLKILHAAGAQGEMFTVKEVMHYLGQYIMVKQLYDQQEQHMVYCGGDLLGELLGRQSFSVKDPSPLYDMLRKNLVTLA

| SMILES | inhibition at 1 µM [1] | inhibition at 1 µM [2] |
| --- | --- | --- |
| COC(=C1C(=O)Nc2cc(Cl)c(F)cc21)c1ccccc1 [H6, 6-chloro-5-fluoro-3-(methoxy(phenyl)methylene) indolin-2-one] | 50.3 ± 2.5% |  |
| O=C1Nc2cc(Cl)ccc2C1=C(c1ccccc1)N1CCCC1 [H7, 6-chloro-3-(phenyl(pyrrolidin-1-yl)methylene)indolin-2-one] | 52.6 ± 2.1% |  |
| COC(=C1C(=O)Nc2cc(F)ccc21)c1ccccc1 [H5, 6-fluoro-3-(methoxy(phenyl)methylene) indolin-2-one] | 56.8 ± 1.9% |  |
| COC(=C1C(=O)Nc2cc(Cl)ccc21)c1ccccc1 [H3, 6-chloro-3-(methoxy(phenyl)methylene) indolin-2-one] | 72.8 ± 5.6% | 57.9 ± 6.1% |
